Experimental data from ChEMBL document CHEMBL3880429, “Aminopyrimidine compounds and their salts, process for preparation and pharmaceutical use thereof” (2012).
Activity calls are given as the source filed them. The rule behind the calls is not given here.

Columns and labels:
[1] = Antitumor activity against human K562 cells xenografted in BALB/cA nude mouse assessed as tumor growth at 150 mg/kg, po qd administered via gavage for 21 days relative to control; type: functional
[2] = Cytotoxicity against human HL60 cells assessed as inhibition of cell proliferation after 48 hrs by MTT assay; type: functional, cell-based; details: HL-60, 48 h
[3] = Antitumor activity against human K562 cells xenografted in BALB/cA nude mouse assessed as tumor growth at 37.5 mg/kg, po qd administered via gavage for 21 days relative to control; type: functional
[4] = system: K562; assay: Antitumor activity against human K562 cells xenografted in BALB/cA nude mouse assessed as extinction of tumor at 150 mg/kg, po qd administered via gavage for 21 days; type: functional, organism-based
[5] = system: K562; assay: Antitumor activity against human K562 cells xenografted in po dosed BALB/cA nude mouse assessed as tumor growth inhibition administered as qd via gavage for 21 days; type: functional, organism-based
[6] = Ratio of IC50 for human HL60 cells to IC50 for Bcr-Abl in human K562 cells
[7] = target: Bcr/Abl fusion protein (Homo sapiens) (UniProt P00519+P11274); assay: Potency index, ratio of imatinib IC50 to compound IC50 for Bcr-Abl in human K562 cells; type: cell-based
Bcr/Abl fusion protein (Homo sapiens), sequence (P00519 whole entry, looked up, the tested form may be a part): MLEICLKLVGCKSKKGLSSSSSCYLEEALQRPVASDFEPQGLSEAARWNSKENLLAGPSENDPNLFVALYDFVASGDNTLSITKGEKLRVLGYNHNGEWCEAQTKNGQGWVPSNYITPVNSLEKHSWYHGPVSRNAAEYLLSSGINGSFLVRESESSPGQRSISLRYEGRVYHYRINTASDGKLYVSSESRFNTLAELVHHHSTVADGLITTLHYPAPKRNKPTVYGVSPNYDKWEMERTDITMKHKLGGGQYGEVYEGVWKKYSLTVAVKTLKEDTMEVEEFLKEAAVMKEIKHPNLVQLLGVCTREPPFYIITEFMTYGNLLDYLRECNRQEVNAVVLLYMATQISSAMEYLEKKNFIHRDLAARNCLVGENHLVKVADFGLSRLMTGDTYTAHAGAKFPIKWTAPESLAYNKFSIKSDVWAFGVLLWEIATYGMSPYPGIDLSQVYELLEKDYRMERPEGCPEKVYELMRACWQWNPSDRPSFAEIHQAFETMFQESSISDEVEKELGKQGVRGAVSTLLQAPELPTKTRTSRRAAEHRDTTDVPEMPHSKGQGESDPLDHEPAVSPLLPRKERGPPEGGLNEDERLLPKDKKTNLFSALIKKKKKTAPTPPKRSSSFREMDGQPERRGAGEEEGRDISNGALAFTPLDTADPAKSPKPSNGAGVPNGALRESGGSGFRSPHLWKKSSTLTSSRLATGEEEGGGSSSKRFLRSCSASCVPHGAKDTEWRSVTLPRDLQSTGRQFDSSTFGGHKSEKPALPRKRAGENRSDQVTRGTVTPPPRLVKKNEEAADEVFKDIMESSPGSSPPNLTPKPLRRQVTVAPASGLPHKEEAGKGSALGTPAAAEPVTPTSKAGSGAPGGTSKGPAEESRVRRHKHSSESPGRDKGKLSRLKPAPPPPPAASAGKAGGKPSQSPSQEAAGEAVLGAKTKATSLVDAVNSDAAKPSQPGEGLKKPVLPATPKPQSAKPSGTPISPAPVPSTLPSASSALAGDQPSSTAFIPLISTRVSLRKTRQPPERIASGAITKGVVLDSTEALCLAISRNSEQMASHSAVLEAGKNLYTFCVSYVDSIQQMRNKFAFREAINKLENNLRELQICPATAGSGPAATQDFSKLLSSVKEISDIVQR
Bcr/Abl fusion protein (Homo sapiens), sequence (P11274 whole entry, looked up, the tested form may be a part): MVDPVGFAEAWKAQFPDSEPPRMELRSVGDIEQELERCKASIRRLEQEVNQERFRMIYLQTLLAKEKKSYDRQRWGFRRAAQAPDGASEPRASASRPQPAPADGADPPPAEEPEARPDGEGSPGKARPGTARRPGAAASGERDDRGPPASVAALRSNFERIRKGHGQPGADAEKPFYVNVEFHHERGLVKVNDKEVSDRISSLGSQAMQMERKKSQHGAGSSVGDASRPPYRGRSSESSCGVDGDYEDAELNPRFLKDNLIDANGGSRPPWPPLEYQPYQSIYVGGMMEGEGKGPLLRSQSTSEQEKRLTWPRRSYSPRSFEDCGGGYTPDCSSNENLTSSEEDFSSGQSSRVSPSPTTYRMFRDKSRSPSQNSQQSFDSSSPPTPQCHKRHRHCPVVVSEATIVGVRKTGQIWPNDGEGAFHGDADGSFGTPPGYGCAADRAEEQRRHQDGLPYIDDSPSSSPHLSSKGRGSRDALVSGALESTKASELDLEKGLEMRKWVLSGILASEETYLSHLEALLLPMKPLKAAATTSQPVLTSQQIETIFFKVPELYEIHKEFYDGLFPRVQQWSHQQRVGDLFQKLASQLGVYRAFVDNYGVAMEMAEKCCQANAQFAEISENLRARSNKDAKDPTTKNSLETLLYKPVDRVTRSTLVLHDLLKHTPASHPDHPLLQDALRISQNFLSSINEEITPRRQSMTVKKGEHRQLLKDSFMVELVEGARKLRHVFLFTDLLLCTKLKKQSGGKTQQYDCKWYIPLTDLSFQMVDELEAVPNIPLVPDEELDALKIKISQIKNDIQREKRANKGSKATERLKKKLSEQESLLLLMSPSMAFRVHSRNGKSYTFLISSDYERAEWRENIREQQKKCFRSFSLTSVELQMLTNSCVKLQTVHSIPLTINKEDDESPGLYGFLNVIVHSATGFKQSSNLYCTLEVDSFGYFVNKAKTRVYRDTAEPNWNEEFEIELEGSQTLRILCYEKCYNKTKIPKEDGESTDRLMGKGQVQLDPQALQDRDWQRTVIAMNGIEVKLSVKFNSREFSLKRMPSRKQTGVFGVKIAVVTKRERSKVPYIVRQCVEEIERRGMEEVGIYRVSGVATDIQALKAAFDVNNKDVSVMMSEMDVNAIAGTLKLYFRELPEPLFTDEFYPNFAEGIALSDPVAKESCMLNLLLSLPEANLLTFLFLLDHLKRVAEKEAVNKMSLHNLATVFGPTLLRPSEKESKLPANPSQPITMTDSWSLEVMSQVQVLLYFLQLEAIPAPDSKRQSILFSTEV

In the case of CS(=O)(=O)O.Cc1ccc(NC(=O)c2ccc(CN3CCN(C)CC3)cc2)cc1Nc1nccc(-c2cccnc2)n1 [IMATINIB MESYLATE], the T/C [1] is reported as 34.2 - 117.7%.
For CS(=O)(=O)O.Cc1ncc(NC(=O)c2ccc(CN3CCN(C)CC3)c(C(F)(F)F)c2)cc1Nc1nccc(-c2cccnc2)n1, the IC50 [2] was 10 µM, the T/C [3] was 40.4% and the Activity [4] was “Active”. For the same compound, the T/C [1] was 0% and the TGI [5] was “Dose-dependent effect”.
With CS(=O)(=O)O.Cc1ncc(NC(=O)c2ccc(CN3CCN(C)CC3)c(Cl)c2)cc1Nc1nccc(-c2cccnc2)n1 the “Ratio IC50” value [6] was 125, the Ratio IC50 [7] was 4 and the T/C [1] was 47.4%.
